The source of these data is ChEMBL document CHEMBL3272295, “Drugs derived from cannabinoids. 5. delta6a,10a-Tetrahydrocannabinol and heterocyclic analogs containing aromatic side chains” (J Med Chem, 1976).

The subject of data set [1] is Rattus norvegicus. Briefly: Antihypertensive activity in spontaneously hypertensive rat model assessed as reduction in blood pressure at 1 mg/kg, po after 3 hrs. The format is functional. Details: scale not given: the % may be the effect or the level left.
For data set [2], the system named is Rattus norvegicus. The experiment in a line: Antianxiety activity in Long-Evans rat assessed as reduction in motor activity at 10 mg/kg, po after 2 hrs relative to vehicle-treated control. The format is functional. Details: scale not given: the % may be the effect or the level left.
Data set [3] can be described thus: Acute toxicity in po dosed mouse. It counts as organism-based. The conditions noted are these: in vivo.
Data set [4] has as its system Rattus norvegicus. Briefly: Antihypertensive activity in spontaneously hypertensive rat model assessed as reduction in blood pressure at 3 mg/kg, po after 24 hrs. It counts as functional. Details: scale not given: the % may be the effect or the level left.
Data set [5] relates to Mus musculus. The experiment in a line: Analgesic activity in mouse assessed as inhibition of acetic acid-induced writhing at 10 mg/kg, po administered 30 mins prior to acetic acid challenge measured after 5 mins for 20 mins. It counts as functional.
In another data set the test system is Canis familiaris. The experiment in a line: Antianxiety activity in po dosed dog assessed as ataxia administered as single dose measured up to 24 hrs. Conditions: Canis lupus familiaris, read-out: MED. It counts as functional.
For data set [6], the system named is Rattus norvegicus. The experiment in a line: Antianxiety activity in Long-Evans rat assessed as reduction in motor activity at 20 mg/kg, po after 2 hrs relative to vehicle-treated control. It counts as functional. Details: scale not given: the % may be the effect or the level left.
Data set [7] relates to Rattus norvegicus. Briefly: Increase in methamphetamine-induced hyperactivity in rat at 5 mg/kg, po administered prior to methamphetamine challenge relative to vehicle-treated control. It counts as functional.
For data set [8], the system named is Mus musculus. The experiment in a line: Antianxiety activity in albino BALB/cJ mouse assessed as reduction in footshock-induced fighting behavior at 10 mg/kg, po after 30 to 90 mins. The format is functional. Details: scale not given: the % may be the effect or the level left.
The subject of data set [9] is Rattus norvegicus. Briefly: Antihypertensive activity in spontaneously hypertensive rat model assessed as reduction in blood pressure at 1 mg/kg, po after 24 hrs. The format is functional. Also on record: scale not given: the % may be the effect or the level left.
Data set [10] deals with Rattus norvegicus. Briefly: Antihypertensive activity in spontaneously hypertensive rat model assessed as reduction in blood pressure at 3 mg/kg, po after 3 hrs. Also on record: scale not given: the % may be the effect or the level left. The format is functional.
Data set [11] has as its system Felis catus. The experiment in a line: Hypnotic activity in cat assessed as increase in total sleep time at 0.5 mg/kg administered orally through diet measured for 12 hrs by EEG analysis. Conditions: route oral. The format is functional.
The test system of data set [12] is Rattus norvegicus. Briefly: Antianxiety activity in Long-Evans rat assessed as reduction in motor activity at 5 mg/kg, po after 2 hrs relative to vehicle-treated control. The format is functional. Details: scale not given: the % may be the effect or the level left.
Data set [13] deals with Rattus norvegicus. Briefly: Antisecretory activity in Sprague-Dawley rat assessed as decrease in pepsin output at 50 mg/kg, po administered 30 mins prior to pylorus ligation measured after 4 hrs relative to control. It counts as functional. Also on record: scale not given: the % may be the effect or the level left.
The species entered for data set [14] is Rattus norvegicus. The experiment in a line: animal or person. The conditions noted are these: Charles River, route oral. The format is functional.
Description: Antidiarrheal activity in Charles River rat assessed as inhibition of castor oil-induced diarrhea by measuring protected animals at 0.5 mg/kg, po administered 1 hr prior to castor oil challenge measured after 1 hr relative to vehicle-treated control
Data set [15] deals with Rattus norvegicus. Briefly: Antisecretory activity in Sprague-Dawley rat assessed as decrease in acid output at 50 mg/kg, po administered 30 mins prior to pylorus ligation measured after 4 hrs relative to control. It counts as functional. Details: scale not given: the % may be the effect or the level left.
Data set [16] has as its system Rattus norvegicus. Briefly: Antisecretory activity in Sprague-Dawley rat assessed as decrease in acidity at 50 mg/kg, po administered 30 mins prior to pylorus ligation measured after 4 hrs relative to control. It counts as functional. Also on record: scale not given: the % may be the effect or the level left.
Data set [17] concerns Rattus norvegicus. Briefly: Antipsychotic activity in rat assessed as reduction of methamphetamine-induced hyperactivity at 5 mg/kg, po administered prior to methamphetamine challenge relative to vehicle-treated control. It counts as functional. Details: scale not given: the % may be the effect or the level left.
Data set [18] has as its system Mus musculus. Briefly: Analgesic activity in po dosed mouse assessed as inhibition of acetic acid-induced writhing administered 30 mins prior to acetic acid challenge measured after 5 mins for 20 mins. It counts as functional.
Data set [19] deals with Rattus norvegicus. The experiment in a line: Increase in pepsin concentration in Sprague-Dawley rat at 50 mg/kg, po administered 30 mins prior to pylorus ligation measured after 4 hrs relative to control. It counts as functional.
Another data set has as its system Rhesus monkey. The experiment in a line: Antianxiety activity in po dosed rhesus monkey assessed as antiagressive behavior measured every hour post dosing. The conditions noted are these: Macaca mulatta, read-out: MED. It counts as functional.
Data set [20] relates to Felis catus. Briefly: Hypnotic activity in cat assessed as increase in non-REM sleep time at 0.5 mg/kg administered orally through diet measured for 12 hrs by EEG analysis. The format is functional. The conditions noted are these: route oral.
The subject of data set [21] is Rattus norvegicus. Briefly: Antisecretory activity in Sprague-Dawley rat assessed as decrease in volume at 50 mg/kg, po administered 30 mins prior to pylorus ligation measured after 4 hrs relative to control. Details: scale not given: the % may be the effect or the level left. The format is functional.
The test system of data set [22] is Mus musculus. The experiment in a line: Antianxiety activity in albino BALB/cJ mouse assessed as reduction in footshock-induced fighting behavior at 5 mg/kg, po after 30 to 90 mins. It counts as functional. Also on record: scale not given: the % may be the effect or the level left.
Data set [23] concerns Mus musculus. Briefly: Analgesic activity in mouse assessed as inhibition of acetic acid-induced writhing at 40 mg/kg, po administered 30 mins prior to acetic acid challenge measured after 5 mins for 20 mins. The format is functional.
In data set [24] the test system is Mus musculus. The experiment in a line: Antidepressant activity in po dosed mouse assessed as potentiation of DOPA-induced effect administered 4 hrs prior to DOPA challenge. It counts as functional. The conditions noted are these: read-out: MED.
The test system of data set [25] is Rattus norvegicus. Briefly: Antipsychotic activity in rat assessed as reduction of methamphetamine-induced hyperactivity at 2 mg/kg, po administered prior to methamphetamine challenge relative to vehicle-treated control. It counts as functional. Also on record: scale not given: the % may be the effect or the level left.
In data set [26] the test system is Rattus norvegicus. Briefly: Antipsychotic activity in rat assessed as reduction of methamphetamine-induced hyperactivity at 10 mg/kg, po administered prior to methamphetamine challenge relative to vehicle-treated control. The format is functional. Also on record: scale not given: the % may be the effect or the level left.
The subject of data set [27] is Rattus norvegicus. The experiment in a line: Antihypertensive activity in spontaneously hypertensive rat model assessed as reduction in blood pressure at 30 mg/kg, po after 24 hrs. The format is functional. Also on record: scale not given: the % may be the effect or the level left.
The subject of data set [28] is Rattus norvegicus. Briefly: Antipsychotic activity in rat assessed as reduction of methamphetamine-induced hyperactivity at 20 mg/kg, po administered prior to methamphetamine challenge relative to vehicle-treated control. The format is functional. Details: scale not given: the % may be the effect or the level left.
The test system of data set [29] is Rattus norvegicus. The experiment in a line: Antihypertensive activity in spontaneously hypertensive rat model assessed as reduction in blood pressure at 30 mg/kg, po after 3 hrs. The format is functional. Details: scale not given: the % may be the effect or the level left.
The test system of data set [30] is Rattus norvegicus. The experiment in a line: Antipsychotic activity in rat assessed as reduction of methamphetamine-induced hyperactivity at 2.5 mg/kg, po administered prior to methamphetamine challenge relative to vehicle-treated control. It counts as functional. Details: scale not given: the % may be the effect or the level left.
Data set [31] concerns Rattus norvegicus. Briefly: Analgesic activity in po dosed Sprague-Dawley rat after 15 to 90 mins by tail flick test. The format is functional.
In data set [32] the test system is Rattus norvegicus. The experiment in a line: Antianxiety activity in Long-Evans rat assessed as reduction in motor activity at 4 mg/kg, po after 2 hrs relative to vehicle-treated control. Also on record: scale not given: the % may be the effect or the level left. It counts as functional.
The subject of data set [33] is Rattus norvegicus. Briefly: Antianxiety activity in Long-Evans rat assessed as reduction in motor activity at 1 mg/kg, po after 2 hrs relative to vehicle-treated control. It counts as functional. Also on record: scale not given: the % may be the effect or the level left.

Consider `CC1CCC2=C(C1)c1c(O)cc(C(C)C(C)CCCc3ccc(F)cc3)cc1OC2(C)C` (configuration not stated), for which the Activity stood at 9% in the data set with Rattus norvegicus [1]; 36% in the data set with Rattus norvegicus [2]; 5% in the data set on Rattus norvegicus [4]; 62% with Rattus norvegicus [6]; 23% with Rattus norvegicus [7]; 16% with Mus musculus [8]. Besides, the Activity with Rattus norvegicus [9] amounted to 0%; with Rattus norvegicus [10], 33%. For the same molecule, the LD50 in [3] is 500 mg/kg. Further, the inhibition in vivo at 10 mg/kg in the data set with Mus musculus [5] was 32%. Moreover, in the data set with Canis familiaris, the minimal effective dose turned out to be 10 mg/kg.

For the molecule `C#CCN1CCC2=C(C1)c1c(OC(=O)CCCN3CCCCC3)cc(C(C)CCCc3ccc(F)cc3)cc1OC2(C)C.Cl` (configuration not stated), the Time turned out to be 47 min with Felis catus [11] and 121 min in the data set with Felis catus [20]. Moreover, in data set [3], the LD50 is 750 mg/kg. Besides, the Activity is reported as 87% with Rattus norvegicus [12]; 1.9% in the data set with Rattus norvegicus [13]; 56.1% with Rattus norvegicus [15]; 42.4% with Rattus norvegicus [16]; 62% in the data set with Rattus norvegicus [17]; 32% in the data set with Rattus norvegicus [19]. Besides, the Activity is given as 23% in the data set on Mus musculus [8] and 24.9% in the data set with Rattus norvegicus [21]. Besides, the inhibition in vivo at 0.5 mg/kg in the data set filed under Rattus norvegicus [14] was found to be 40%. The minimal effective dose with Canis familiaris was found to be 0.4 mg/kg; with Rhesus monkey, 1 mg/kg. For the same molecule, the ED50 in the data set on Mus musculus [18] was 10.3 mg/kg.

`Br.CC(CCCc1ccc(F)cc1)c1cc(O)c2c(c1)OC(C)(C)C1=C2C2CCN1CC2` (configuration not stated): the Activity with Rattus norvegicus [2] is reported as 46%; with Rattus norvegicus [12] it was 23%; in the data set with Mus musculus [22], 23%; in the data set on Rattus norvegicus [17] it was 4%. This molecule showed an LD50 in [3] of no less than 1000 mg/kg. In the data set listed under Rattus norvegicus [14], this molecule displayed an inhibition in vivo at 0.5 mg/kg of 10%. Further, the minimal effective dose with Canis familiaris amounted to 1 mg/kg; in the data set with Rhesus monkey, 1 mg/kg; in the data set on Mus musculus [24] it was 20 mg/kg. In addition, the inhibition in vivo at 40 mg/kg in the data set with Mus musculus [23] worked out at 32%.

With `CC1CSC2=C1c1c(O)cc(C(C)CCCc3ccc(F)cc3)cc1OC2(C)C` (configuration not stated), the Time was 11 min with Felis catus [11] and 8 min in the data set with Felis catus [20]. Moreover, the LD50 in data set [3] was determined as 500 mg/kg. For the same molecule, the Activity with Rattus norvegicus [12] worked out at 85%; in the data set on Rattus norvegicus [17], 78%; in the data set with Mus musculus [8], 100%; in the data set with Rattus norvegicus [25] it was 55%. For the same molecule, the ED50 in the data set on Mus musculus [18] is 8.4 mg/kg.

With `C#CCN1CCC2=C(C1)c1c(O)cc(C(C)CCCCc3ccc(F)cc3)cc1OC2(C)C` (configuration not stated), the Time in the data set with Felis catus [11] was determined as 61 min; in the data set on Felis catus [20] it was 7 min. Moreover, the Activity is recorded as 50% in the data set with Rattus norvegicus [26]; 33% in the data set on Rattus norvegicus [12]; 0% with Mus musculus [22]; 0% in the data set with Rattus norvegicus [27]; 70% in the data set on Rattus norvegicus [28]; 0% in the data set with Rattus norvegicus [29]. In addition, the LD50 in data set [3] was no less than 1000 mg/kg. In addition, testing at 0.5 mg/kg in the data set listed under Rattus norvegicus [14] gave an inhibition in vivo of 30%. For the same molecule, the ED50 in the data set with Mus musculus [18] was found to be 48 mg/kg.

As to `CC1CCC2=C(C1)c1c(OC(=O)CCCN3CCOCC3)cc(C(C)CCCc3ccc(F)cc3)cc1OC2(C)C.Cl` (configuration not stated), the Time in the data set on Felis catus [11] amounted to 16 min; with Felis catus [20] it was 39 min. The Activity worked out at 86% in the data set with Rattus norvegicus [30]; 95% in the data set with Rattus norvegicus [26]; 8% in the data set with Mus musculus [22]; 93% with Rattus norvegicus [32]; 68% with Rattus norvegicus [33]. Further, the median lethal dose (LD50) in data set [3] is no less than 1000 mg/kg. Also, the ED50 was 1.7 mg/kg in the data set on Rattus norvegicus [31] and 6 mg/kg in the data set with Mus musculus [18]. Further, the minimal effective dose in the data set on Canis familiaris and in the data set on Rhesus monkey was 10 mg/kg throughout.
